Results as given in publication PMC9400670, “Establishing the selective phospholipid membrane coordination, permeation and lysis properties for a series of ‘druggable’ supramolecular self-associating antimicrobial amphiphiles” (Chemical Science, 2022).

What was measured:
E. coli DH10B = assay: MIC50 determination and initial screening from OD600 growth curves, E. coli DH10B; assay type: cell-based, Escherichia coli; conditions: for MIC50 / inhibition at 3300 µM: Escherichia coli, 15 h; for MIC50: E. coli DH10B; for inhibition at 3300 µM: DH10B, 3.3 mM, read-out: initial antimicrobial screening, inhibition of growth, E. coli
From the text: The antimicrobial activity of SSAs 1–14 was established against both a model Gram-positive, clinically relevant methicillin resistant Staphylococcus aureus (MRSA), and a model Gram-negative, E. coli bacteria, Table 1. Here MIC50 values are given in mM to enable the derivation of molecular structure: antimicrobial efficacy: physical property relationships. […]
Data were acquired in endpoint mode. […]
Section 3: Microbial Methods
These methods were taken directly from UK Health and Security Office (UKHSA) standard operating […]
Preparation of Luria Broth media (LB): Yeast extract (5 g), tryptone (10 g) and sodium chloride (10 g) were dissolved in dH₂O (1 L) then divided into bottles and autoclaved.
Preparation of Luria Broth (LB) agar plates: Agar (6 g) was added to LB (400 mL) and autoclaved. Once cool, the LB agar was poured into sterile petri dishes under sterile conditions and allowed to set. LB plates were stored at 4 °C until use.
Preparation of bacterial plates: Sterile LB agar plates were streaked using Escherichia coli DH10B or USA300 Methicillin-Resistant Staphylococcus aureus then incubated at 37 °C overnight.
Preparation of Inoculum: An initial culture was made up by inoculating LB media (5 mL) with a single colony of bacteria under sterile conditions and incubated at 37 °C with shaking overnight. The following day, overnight bacterial cultures were subcultured into fresh LB medium to a starting OD600 […]
Preparation of 96 well microplate for screening: 20 mM solutions of each compound to be tested were made up using 5 % ethanol. The 1:100 cell suspension (150 µL) was pipetted into the wells and SSA compound solutions (30 µL) were added into each well. The final screening concentration for each compound was 3.3 mM in the well. These were incubated for 20 hours in a plate reader, with optical density readings being taken at 600 nm every 15 minutes. Optical density readings were plotted against time to produce growth curves. […]
individual wells under sterile conditions. Compounds (30 µL) were added to the wells to equal a total volume of 180 µL in the wells. Six repeats of each concentration for each compound were created each plate. The plates were sealed using parafilm, then incubated at 37°C in a microplate reader for 18-25 hours. Optical density readings were taken at 600 nm every 15 min. Data was used to generate […]
Calculation of MIC50: Growth curves were plotted using OD600 optical density readings in Microsoft ® Excel ® 2013. OD600 optical density readings 900 minutes from the start of each of these growth cultures for each concentration of compound were plotted in Origin ® 2015. The resultant curve was normalized and fitted using the Boltzmann fit to define the MIC50 values for each compound.

[1] = test system: E. coli polar lipid vesicles; assay: Synthetic phospholipid vesicle membrane binding assay (fluorescence polarisation), E. coli polar vesicles; conditions: lipid vesicles added to SSA (0.15 mM); n = 3; error = standard error; SSA alone set to 100 mP
Protocol: For intrinsically fluorescent SSAs 5, 6 and 8–12, FP titration experiments enabled the observation of SSA: phospholipid vesicle interactions. Here, an increase in FP value indicates an increase in the apparent size of the SSA as it interacts with the phospholipid vesicle. […]
Fluorescence polarisation: Lipid films were resuspended in Buffer (150 mM KCl, 10 mM HEPES, pH 7.4, 2 mM EGTA) and subjected to 9 freeze-thaw cycles in liquid nitrogen and extruded 20 times through a 200 nm polycarbonate membrane. Black bottom 96-well plates were prepared by serially diluting desired vesicle solution across the plate, the appropriate SSA solution (100 µL, 0.15 mM) was added to each well to give a total well volume of 200 µL. Fluorescent SSA solutions were set to a FP value of 100 mP. Data were acquired in endpoint mode. […]

[2] = Table S3, conversion of the mM values of Table 1, after 900 mins
[3] = n = 3, 0.5 McFarland standard, after 900 min, number in bracket = efficacy rank

Row | SMILES | MIC50 (E. coli DH10B; [2]) [µg/mL] | MIC50 (E. coli DH10B; [3]) [µM] | increase in FP, E. coli polar [1] [mP] | inhibition at 3300 µM (E. coli DH10B; after 900 min) [%] | initial antimicrobial screening outcome, E. coli (E. coli DH10B; Table S3, screening at 3.3 mM)
1 | O=C(NCS(=O)(=O)O)Nc1ccc(C(F)(F)F)cc1 [SSA 1] | 2080 | – | – | – | –
2 | O=C(O)CNC(=O)Nc1ccc(C(F)(F)F)cc1 [SSA 4] | 630 | – | – | – | –
3 | Cc1ccc2nc(NC(=O)NCS(=O)(=O)O)sc2c1 [SSA 7] | – | – | – | < 10 | Fail
4 | Cc1ccc2nc(-c3ccc(NC(=O)NCC(=O)O)cc3)sc2c1 [SSA 11] | – | – | 79 ± 1 | – | –
5 | Cc1ccc2nc(-c3ccc(NC(=S)NCS(=O)(=O)O)cc3)sc2c1 [SSA 12] | – | – | 176 ± 2 | < 10 | –

Continued, in another order:

Row | MIC50 (E. coli DH10B; [2]) [µg/mL] | MIC50 (E. coli DH10B; [3]) [µM] | SMILES | increase in FP, E. coli polar [1] [mP] | inhibition at 3300 µM (E. coli DH10B; after 900 min) [%] | initial antimicrobial screening outcome, E. coli (E. coli DH10B; Table S3, screening at 3.3 mM)
6 | 840 | – | O=C(NCCCS(=O)(=O)O)Nc1ccc(C(F)(F)F)cc1 [SSA 2] | – | – | –
7 | 2160 | – | O=C(NCS(=O)(=O)O)Nc1ccccc1-c1nc2ccccc2s1 [SSA 5] | 40 ± 4 | – | –
8 | 3110 | – | Cc1ccc2nc(-c3ccc(NC(=O)NCS(=O)(=O)O)cc3)sc2c1 [SSA 6] | 35 ± 3 | – | –
9 | 2210 | 3660 | O=C(NCS(=O)(=O)O)Nc1ccc(-c2nc3ccccc3s2)cc1 [SSA 8] | 27 ± 2 | – | –
10 | 1370 | 2160 | Cc1ccc2nc(-c3ccc(NC(=O)NCCC(=O)O)cc3)sc2c1 [SSA 9] | 53 ± 3 | – | –
11 | 750 | 1160 | Cc1ccc2nc(-c3ccc(NC(=O)NCCCS(=O)(=O)O)cc3)sc2c1 [SSA 10] | 25 ± 14 | – | –
